In patent US8822462B2, “Subunit selective NMDA receptor potentiators for the treatment of neurological conditions” (Emory University, priority 2009, dated 2014):
Like-named read-outs stand apart in the source and are kept apart here.

Key:
[1] = target: NR1/NR2D (Homo sapiens, UniProt O15399+Q05586); assay: Two electrode voltage clamp, Xenopus laevis oocytes expressing NR1/NR2D; settings: for Emax: read-out: 2D Max
[2] = target: T1, NR1/NR2B (Homo sapiens, UniProt Q05586+Q13224); assay: Two electrode voltage clamp, Xenopus laevis oocytes expressing NR1/NR2B; format: cell-based; settings: for activity at 100 µM / activity at 30 µM: read-out: 2B percent effect at the maximum tested concentration; for IC50: fitted to composite concentration-effect data, Max 0 = inhibition, read-out: 2B IC50
T1 construct: expressed in transfected cells; host or cells: Xenopus laevis oocytes
Protocol: (§1) In the table above, potency is expressed as fitted EC50 value to average composite concentration-effect data constructed from current responses recorded under two electrode voltage clamp from Xenopus laevis oocytes expressing either NR1/NR2A, B, C, or D, GluR1, or GluR6. No effect means less than 20% change in response amplitude at 30 μM of drug.

[3] = target: T2, NR1/NR2A (Homo sapiens, UniProt Q12879); assay: Two electrode voltage clamp, Xenopus laevis oocytes expressing NR1/NR2A; format: cell-based; settings: read-out: 2A percent effect at the maximum tested concentration
T2 construct: expressed in transfected cells; host or cells: Xenopus laevis oocytes
T2 sequence (Q12879 23-1464, species assumed, other chains not shown): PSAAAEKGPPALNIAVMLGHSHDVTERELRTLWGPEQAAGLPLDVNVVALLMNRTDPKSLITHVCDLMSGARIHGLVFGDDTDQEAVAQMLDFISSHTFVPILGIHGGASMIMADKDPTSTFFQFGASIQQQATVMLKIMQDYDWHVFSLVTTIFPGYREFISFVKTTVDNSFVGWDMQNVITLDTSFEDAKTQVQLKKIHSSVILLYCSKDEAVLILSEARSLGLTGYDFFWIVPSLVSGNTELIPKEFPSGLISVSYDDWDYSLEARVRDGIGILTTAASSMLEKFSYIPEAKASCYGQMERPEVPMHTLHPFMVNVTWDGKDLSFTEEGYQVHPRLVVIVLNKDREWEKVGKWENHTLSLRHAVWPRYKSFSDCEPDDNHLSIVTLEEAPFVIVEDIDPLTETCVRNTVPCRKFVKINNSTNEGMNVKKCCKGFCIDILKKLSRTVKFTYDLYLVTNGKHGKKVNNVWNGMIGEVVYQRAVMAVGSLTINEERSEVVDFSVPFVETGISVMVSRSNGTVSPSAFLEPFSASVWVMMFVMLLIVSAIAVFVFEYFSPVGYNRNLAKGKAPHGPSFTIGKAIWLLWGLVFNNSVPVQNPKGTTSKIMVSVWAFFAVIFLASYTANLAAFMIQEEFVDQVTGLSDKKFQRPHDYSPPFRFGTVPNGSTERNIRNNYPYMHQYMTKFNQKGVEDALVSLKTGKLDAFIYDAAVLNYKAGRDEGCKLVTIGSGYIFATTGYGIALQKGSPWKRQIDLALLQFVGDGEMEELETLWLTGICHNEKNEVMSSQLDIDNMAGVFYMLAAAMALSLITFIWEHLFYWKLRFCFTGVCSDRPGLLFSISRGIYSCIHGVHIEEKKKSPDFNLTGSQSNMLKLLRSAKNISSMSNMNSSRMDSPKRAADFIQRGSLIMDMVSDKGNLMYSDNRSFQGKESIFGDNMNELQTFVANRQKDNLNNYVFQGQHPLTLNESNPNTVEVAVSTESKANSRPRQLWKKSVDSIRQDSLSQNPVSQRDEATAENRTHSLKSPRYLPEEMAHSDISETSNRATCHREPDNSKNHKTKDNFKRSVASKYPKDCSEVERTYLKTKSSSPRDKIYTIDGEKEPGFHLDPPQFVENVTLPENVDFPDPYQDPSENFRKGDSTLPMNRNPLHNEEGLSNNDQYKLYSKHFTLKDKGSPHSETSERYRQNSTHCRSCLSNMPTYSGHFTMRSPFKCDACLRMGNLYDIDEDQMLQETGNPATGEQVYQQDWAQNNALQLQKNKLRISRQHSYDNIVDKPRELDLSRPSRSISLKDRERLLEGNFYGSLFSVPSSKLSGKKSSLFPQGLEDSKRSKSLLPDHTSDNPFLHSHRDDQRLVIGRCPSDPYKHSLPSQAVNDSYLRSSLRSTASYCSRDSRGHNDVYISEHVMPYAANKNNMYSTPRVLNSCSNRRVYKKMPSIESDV
Protocol: as §1

[4] = target: T3, NR1/NR2C (Homo sapiens, UniProt Q05586+Q14957); assay: Two electrode voltage clamp, Xenopus laevis oocytes expressing NR1/NR2C; format: cell-based; settings: for IC50: fitted to composite concentration-effect data, read-out: 2C IC50; for Emax: maximal effect of fit, read-out: 2C Max; for activity at 100 µM: read-out: 2C percent effect at the maximum tested concentration
T3 construct: expressed in transfected cells; host or cells: Xenopus laevis oocytes
T3 sequence (Q14957 20-1233, species assumed, other chains not shown): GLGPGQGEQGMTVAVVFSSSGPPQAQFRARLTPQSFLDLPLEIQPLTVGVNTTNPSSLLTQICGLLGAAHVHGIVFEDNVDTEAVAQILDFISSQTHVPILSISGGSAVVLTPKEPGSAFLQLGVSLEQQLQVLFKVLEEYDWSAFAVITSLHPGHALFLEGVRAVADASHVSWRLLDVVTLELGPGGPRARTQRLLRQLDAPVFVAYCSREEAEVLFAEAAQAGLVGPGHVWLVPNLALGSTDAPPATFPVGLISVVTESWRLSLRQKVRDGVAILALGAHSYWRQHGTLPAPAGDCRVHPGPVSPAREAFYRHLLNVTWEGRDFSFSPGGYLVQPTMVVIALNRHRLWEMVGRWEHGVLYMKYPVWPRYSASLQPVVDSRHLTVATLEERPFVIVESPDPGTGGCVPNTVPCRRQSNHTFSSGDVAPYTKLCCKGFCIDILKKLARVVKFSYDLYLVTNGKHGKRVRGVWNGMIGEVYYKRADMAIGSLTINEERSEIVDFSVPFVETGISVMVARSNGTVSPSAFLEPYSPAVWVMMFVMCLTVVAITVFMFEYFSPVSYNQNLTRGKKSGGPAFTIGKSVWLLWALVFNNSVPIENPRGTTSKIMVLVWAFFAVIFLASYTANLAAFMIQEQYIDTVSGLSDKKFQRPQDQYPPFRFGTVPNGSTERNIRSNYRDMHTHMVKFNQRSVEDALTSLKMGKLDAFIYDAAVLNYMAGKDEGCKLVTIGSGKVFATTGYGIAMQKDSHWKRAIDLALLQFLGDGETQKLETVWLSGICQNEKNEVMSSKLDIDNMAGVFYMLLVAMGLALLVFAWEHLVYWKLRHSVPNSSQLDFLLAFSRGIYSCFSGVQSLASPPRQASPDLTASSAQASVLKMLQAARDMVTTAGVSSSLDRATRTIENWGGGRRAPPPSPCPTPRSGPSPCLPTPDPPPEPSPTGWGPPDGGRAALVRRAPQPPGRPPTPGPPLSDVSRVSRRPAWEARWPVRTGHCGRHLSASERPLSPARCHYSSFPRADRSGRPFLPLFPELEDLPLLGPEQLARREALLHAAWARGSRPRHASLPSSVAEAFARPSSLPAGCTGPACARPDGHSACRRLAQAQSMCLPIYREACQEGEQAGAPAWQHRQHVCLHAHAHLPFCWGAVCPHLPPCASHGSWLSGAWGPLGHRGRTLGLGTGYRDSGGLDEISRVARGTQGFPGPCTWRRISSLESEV
Excerpt: Values are mean+SEM (n=14-20). […] C is the closed level; broken line is the open level.
The Hill slope at both receptors for all analogues was greater than 1, consistent with a cooperative effect of binding at two sites.
as §1

[5] = read-out: 2D percent effect at the maximum tested concentration, at 100 μM

NR1/NR2D, sequence (O15399 28-1336, species assumed, other chains not shown): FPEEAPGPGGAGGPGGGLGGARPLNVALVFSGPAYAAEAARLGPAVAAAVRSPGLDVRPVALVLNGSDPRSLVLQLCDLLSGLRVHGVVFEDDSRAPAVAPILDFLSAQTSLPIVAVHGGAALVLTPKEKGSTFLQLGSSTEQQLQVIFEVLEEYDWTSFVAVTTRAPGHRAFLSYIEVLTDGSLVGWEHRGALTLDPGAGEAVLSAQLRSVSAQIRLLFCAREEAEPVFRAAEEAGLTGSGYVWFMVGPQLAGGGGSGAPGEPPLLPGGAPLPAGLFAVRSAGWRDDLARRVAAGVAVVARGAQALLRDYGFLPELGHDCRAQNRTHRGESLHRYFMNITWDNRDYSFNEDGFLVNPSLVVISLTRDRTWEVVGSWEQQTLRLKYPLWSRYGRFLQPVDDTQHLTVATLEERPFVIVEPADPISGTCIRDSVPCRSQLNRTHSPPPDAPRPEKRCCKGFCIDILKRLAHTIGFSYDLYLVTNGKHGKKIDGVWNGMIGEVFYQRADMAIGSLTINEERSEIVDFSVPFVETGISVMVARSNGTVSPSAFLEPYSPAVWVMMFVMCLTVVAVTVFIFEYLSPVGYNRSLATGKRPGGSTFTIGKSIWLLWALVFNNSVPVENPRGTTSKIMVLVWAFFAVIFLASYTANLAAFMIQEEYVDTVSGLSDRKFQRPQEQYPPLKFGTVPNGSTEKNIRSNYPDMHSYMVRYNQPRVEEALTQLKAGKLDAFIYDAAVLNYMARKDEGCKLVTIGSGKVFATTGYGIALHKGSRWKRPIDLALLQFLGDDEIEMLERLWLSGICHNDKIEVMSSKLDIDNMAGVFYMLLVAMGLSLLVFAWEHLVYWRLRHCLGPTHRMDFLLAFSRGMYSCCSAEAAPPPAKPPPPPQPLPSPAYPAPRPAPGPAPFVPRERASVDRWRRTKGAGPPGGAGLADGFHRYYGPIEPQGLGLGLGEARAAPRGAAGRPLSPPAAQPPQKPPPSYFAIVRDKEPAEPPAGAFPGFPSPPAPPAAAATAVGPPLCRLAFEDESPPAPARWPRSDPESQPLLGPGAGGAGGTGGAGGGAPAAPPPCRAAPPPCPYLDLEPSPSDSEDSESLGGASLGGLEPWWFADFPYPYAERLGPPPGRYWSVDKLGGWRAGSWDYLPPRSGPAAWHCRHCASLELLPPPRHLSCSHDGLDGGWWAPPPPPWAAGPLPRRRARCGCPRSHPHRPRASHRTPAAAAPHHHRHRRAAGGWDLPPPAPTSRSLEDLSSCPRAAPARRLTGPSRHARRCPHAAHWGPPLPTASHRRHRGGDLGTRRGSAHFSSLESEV

activity at 100 µM [2] | activity at 100 µM [3] | activity at 100 µM [1, 5] | activity at 100 µM [4] | SMILES | IC50 [1] | Emax [1] | IC50 [4] | Emax [4] | IC50 [2] | activity at 30 µM ([1]; read-out: 2D percent effect at the maximum tested concentration, at 30 μM) | activity at 30 µM [2] | activity at 30 µM [3] | activity at 100 µM ([1]; read-out: 2D percent effect at the maximum tested concentration)
 |  |  |  | COc1ccc(OCC2c3cc(OC)c(OC)cc3CCN2C(=O)c2cccc(Cl)c2Cl)cc1 (centres unmarked) [1180-12] |  |  | 2 µM | 133% |  | 109% | 90% | 97% | 
78% | 95% | 76% | 83% | CCc1ccc(C(=O)Nc2sccc2C(=O)O)cc1 [compound 1489] |  |  |  |  |  |  |  |  | 
97% | 96% | 81% | 95% | Cc1cc(C(=O)O)c(NC(=O)c2ccccc2)s1 [compound 1396] |  |  |  |  |  |  |  |  | 
80% | 100% | 84% | 76% | COc1ccc(OCC2c3cc(OC)c(OC)cc3CCN2C(=O)c2ccccn2)cc1 (centres unmarked) [compound 1484] |  |  |  |  |  |  |  |  | 
80% | 120% | 94% | 96% | COc1ccc(OCC2c3cc(OC)c(OC)cc3CCN2C(=O)c2ccc(Br)cc2)cc1 (centres unmarked) [compound 1393] |  |  |  |  |  |  |  |  | 
91% | 93% | 90% | 97% | O=C(O)C1=C(NC(=O)c2ccc(I)cc2)SC2CCCC12 (centres unmarked) [compound 1419] |  |  |  |  |  |  |  |  | 
61% | 140% | 78% | 87% | COc1ccc(OCC2c3cc(OC)c(OC)cc3CCN2C(=O)N2CCOCC2)cc1 (centres unmarked) [1180-23] |  |  |  |  |  |  |  |  | 
 | 78% | 97% | 88% | CSC1=NCCN1C(=O)c1ccc(C)cc1 [compound 1344] |  |  |  |  | 174 µM |  |  |  | 
78% | 77% | 95% | 83% | COc1ccc(OCC2c3cc(OC)c(OC)cc3CCN2C(=O)c2ccc([N+](=O)[O-])cc2)cc1 (centres unmarked) [compound 1370] |  |  |  |  |  |  |  |  | 
128% | 115% | 103% | 93% | COc1cc2c(cc1OC)C(COc1ccc(SC)cc1)N(C(=O)c1ccccc1)CC2 (centres unmarked) [1180-14] |  |  |  |  |  |  |  |  | 
68% | 86% | 77% | 99% | O=C(O)C1=C(NC(=O)c2ccc(Br)cc2)SC2CCCC12 (centres unmarked) [compound 1404] |  |  |  |  |  |  |  |  | 
70% | 105% | 72% | 80% | Cc1csc(C(=O)O)c1NC(=O)c1ccc(C(C)(C)C)cc1 [compound 1428] |  |  |  |  |  |  |  |  | 
 | 81% | 86% | 78% | O=C(O)c1c(NC(=O)c2cccc3ccccc23)sc2c1CCC2 [compound 1441] |  |  |  |  | 43 µM |  |  |  | 
119% | 113% |  | 97% | CC1CCc2c(sc(NC(=O)c3ccc(C(C)(C)C)cc3)c2C(=O)O)C1 (centres unmarked) [compound 1481] | 21 µM | 124% |  |  |  |  |  |  | 
71% | 89% | 79% | 69% | COc1ccc(OCC2c3cc(OC)c(OC)cc3CCN2S(=O)(=O)c2ccccc2)cc1 (centres unmarked) [compound 1487] |  |  |  |  |  |  |  |  | 
 |  |  |  | COc1ccc(/C=C/C2c3cc(OC)c(OC)cc3CCN2C(=O)c2cccc(Cl)c2)cc1 (centres unmarked) [1180-31] | 1.5 µM | 172% | 1.2 µM | 190% |  |  | 82% | 95% | 
97% | 93% | 88% | 94% | COc1cccc(OCC2c3cc(OC)c(OC)cc3CCN2C(=O)c2cccc(Cl)c2)c1 (centres unmarked) [1180-6] |  |  |  |  |  |  |  |  | 
85% | 75% | 74% | 82% | COc1ccc(OCC2c3cc(OC)c(OC)cc3CCN2C(=O)c2cccnc2)cc1 (centres unmarked) [compound 1485] |  |  |  |  |  |  |  |  | 
96% | 100% | 83% | 79% | COc1ccc(OCC2c3cc(OC)c(OC)cc3CCN2C(=O)CN2CCOCC2)cc1 (centres unmarked) [1180-24] |  |  |  |  |  |  |  |  | 
94% | 92% | 77% | 95% | Cc1ccc(C(=O)Nc2sc(C)cc2C(=O)O)cc1 [compound 1395] |  |  |  |  |  |  |  |  | 
86% | 98% | 81% | 83% | COc1ccc(OCC2c3cc(OC)c(OC)cc3CCN2C(=O)c2ccno2)cc1 (centres unmarked) [1180-5] |  |  |  |  |  |  |  |  | 
80% | 104% | 93% | 103% | CSC1=NCCN1C(=O)c1ccc2ccccc2c1 [compound 1402] |  |  |  |  |  |  |  |  | 
68% | 91% | 111% | 102% | COC(=O)c1ccc(OCC2c3cc(OC)c(OC)cc3CCN2C(=O)c2cccc(Cl)c2)cc1 (centres unmarked) [compound 1444] |  |  |  |  |  |  |  |  | 
96% | 99% | 89% | 84% | CCN1CC(C(O)Nc2ccc(OC)cc2OC)c2cc(OC)c(OC)cc2C1=O (centres unmarked) [compound 1439] |  |  |  |  |  |  |  |  | 

SMILES | activity at 100 µM [2] | activity at 100 µM [3] | activity at 100 µM [1, 5] | activity at 100 µM [4] | IC50 [1] | Emax [1] | IC50 [4] | Emax [4] | IC50 [2] | activity at 30 µM ([1]; read-out: 2D percent effect at the maximum tested concentration, at 30 μM) | activity at 30 µM [2] | activity at 30 µM [3] | activity at 100 µM ([1]; read-out: 2D percent effect at the maximum tested concentration)
CC(C)(C)c1ccc(C(=O)Nc2sc3c(c2C(=O)O)CCC3)cc1 [compound 1399] | 108% | 100% |  |  | 26 µM | 261% | 77 µM | 301% |  |  |  |  | 
Cc1cc(C(=O)O)c(NC(=O)c2ccc(C(C)(C)C)cc2)s1 [compound 1357] | 102% | 102% |  |  | 120 µM | 326% | 175 µM | 388% |  |  |  |  | 
CC(C)(C)c1ccc(CSc2nc(N)cc(O)n2)cc1 [compound 1563] |  | 91% |  |  | 68 µM | 614% | 39 µM | 424% | 24 µM |  |  |  | 
Cc1sc(NC(=O)c2ccc(C(C)(C)C)cc2)c(C(=O)O)c1C [compound 1418] | 115% | 99% |  |  | 35 µM | 195% | 33 µM | 187% |  |  |  |  | 
CC(C)(C)c1ccc(C(=O)NC2=C(C(=O)O)C3CCCCCC3S2)cc1 (centres unmarked) [compound 1482] | 116% | 97% |  |  | 16 µM | 170% | 19 µM | 127% |  |  |  |  | 
COc1ccc(OCC2c3cc(OC)c(OC)cc3CCN2C(=O)c2cccc(OC)c2)cc1 (centres unmarked) [compound 1392] | 59% | 104% |  |  | 12 µM | 179% | 6 µM | 181% |  |  |  |  | 
Cc1ccc(-c2csc(NC(=O)c3ccc(C(C)(C)C)cc3)c2C(=O)O)cc1 [compound 1434] |  | 121% |  |  | 18 µM | 273% | 16 µM | 224% | 11 µM |  |  |  | 
COc1cc2c(cc1OC)CN(C(=O)c1ccccc1)CC2 [1180-28] | 95% | 71% |  | 78% |  |  |  |  |  |  |  |  | 80%
COc1ccc(OCC2c3cc(OC)c(OC)cc3CCN2C(=O)c2cccc(F)c2)cc1 (centres unmarked) [compound 1369] | 84% | 94% |  |  | 7 µM | 169% | 7 µM | 184% |  |  |  |  | 
COc1ccc(OCC2c3ccc(OC)cc3CCN2C(=O)c2cccc(Br)c2)cc1 (centres unmarked) [1180-27] | 77% | 107% |  |  | 1 µM | 168% | 1 µM | 192% |  |  |  |  | 
COc1ccc(-c2csc(NC(=O)c3ccc(C(C)(C)C)cc3)c2C(=O)O)cc1 [compound 1424] |  | 123% |  |  | 43 µM | 475% | 42 µM | 434% | 19 µM |  |  |  | 
COc1ccc(OCC2c3cc4c(cc3CCN2C(=O)c2cccc(Cl)c2)OCO4)cc1 (centres unmarked) [1180-25] | 76% | 96% |  |  | 7 µM | 162% | 12 µM | 188% |  |  |  |  | 
COc1ccc(OCC2c3cc(OC)c(OC)cc3CCN2C(=O)c2ccc(F)c(Cl)c2)cc1 (centres unmarked) [1180-18] | 95% | 136% |  |  | 7 µM | 206% | 6 µM | 226% |  |  |  |  | 
COc1ccc(OCC2c3c(cc(OC)cc3OC)CCN2C(=O)c2cccc(Br)c2)cc1 (centres unmarked) [1180-21] | 72% | 92% |  |  | 7 µM | 230% | 7 µM | 265% |  |  |  |  | 
COc1ccc(OCC2c3cc(OC)c(OC)cc3CCN2C(=O)c2cccc(C(F)(F)F)c2)cc1 (centres unmarked) [compound 1426] | 86% | 88% |  |  | 2 µM | 204% | 2 µM | 171% |  |  |  |  | 
